Series [1] can be described thus: Drug localization in mitochondria of mouse Colon 26 cells assessed as bright detail similarity scores at 0.2 uM incubated for 15 mins in presence of MTG by flow cytometry. It counts as ADME. As to conditions: colon 26, 0.25 h.
A short description of series [2]: Drug localization in mitochondria of human HUT78 cells assessed as bright detail similarity scores at 0.2 uM incubated for 15 mins in presence of MTG by flow cytometry. It counts as ADME. As to conditions: hut78, 0.25 h.
Series [3] is described as follows: Induction of singlet oxygen assessed as quantum yields for generation of singlet oxygen by luminescence spectroscopy. It counts as physicochemical.
Series [4] relates to Colon 26. Kind of series: Phototoxicity against mouse Colon 26 cells assessed as cell survival fraction incubated for 1 hr in dark followed by irradiation with 1 J/cm'-2 light from tunable dye laser at 642 +/- 2 nm measured after 48 hrs by SRB assay. It counts as functional, cell-based. As to conditions: Colon 26, light or radiation study.
Series [5] relates to Colon 26. Kind of series: Dark toxicity against mouse Colon 26 cells assessed as cell survival fraction at 1 uM incubated for 1 hr in dark measured after 48 hrs by SRB assay. It counts as cell-based. As to conditions: colon 26, 1 µM.
Series [6] is described as follows: Dark toxicity against mouse Colon 26 cells assessed as cell survival fraction incubated for 1 hr in dark measured after 48 hrs by SRB assay. It counts as cell-based. As to conditions: read-out: LD50.
Series [7] in a line: Therapeutic index, ratio of LD50 for dark toxicity against mouse Colon 26 cells to EC50 for phototoxicity against mouse Colon 26 cells at 1 Jcm'-2 of irradiation with 660 +/- 2 nm nm light. As to conditions: read-out: Ratio LD50/EC50. The series is classed as cell-based.
For series [8], the system named is Colon 26. Kind of series: Phototoxicity against mouse Colon 26 cells assessed as cell survival fraction incubated for 1 hr in dark followed by irradiation with 1 J/cm'-2 light from tunable dye laser at 660 +/- 2 nm measured after 48 hrs by SRB assay. The series is classed as functional, cell-based. As to conditions: Colon 26, light or radiation study.
Series [9] in a line: Therapeutic index, ratio of LD50 for dark toxicity against mouse Colon 26 cells to EC50 for phototoxicity against mouse Colon 26 cells at 5 Jcm'-2 of irradiation with 700 +/- 2 nm light. As to conditions: read-out: Ratio LD50/EC50. The series is classed as cell-based.
Series [10] can be described thus: Therapeutic index, ratio of LD50 for dark toxicity against mouse Colon 26 cells to EC50 for phototoxicity against mouse Colon 26 cells at 10 Jcm'-2 of irradiation with 700 +/- 2 nm light. The series is classed as cell-based. As to conditions: read-out: Ratio LD50/EC50.
Series [11] relates to Colon 26. Kind of series: Phototoxicity against mouse Colon 26 cells assessed as cell survival fraction incubated for 1 hr in dark followed by irradiation with 5 J/cm'-2 light from tunable dye laser at 700 +/- 2 nm measured after 48 hrs by SRB assay. It counts as functional, cell-based. As to conditions: Colon 26, light or radiation study.
The test system of series [12] is Colon 26. Kind of series: Phototoxicity against mouse Colon 26 cells assessed as cell survival fraction incubated for 1 hr in dark followed by irradiation with 10 J/cm'-2 light from tunable dye laser at 700 +/- 2 nm measured after 48 hrs by SRB assay. It counts as functional, cell-based. As to conditions: Colon 26, light or radiation study.
Series [13] can be described thus: Therapeutic index, ratio of LD50 for dark toxicity against mouse Colon 26 cells to EC50 for phototoxicity against mouse Colon 26 cells at 5 Jcm'-2 of irradiation with 690 +/- 2 nm light. The series is classed as cell-based. As to conditions: read-out: Ratio LD50/EC50.
A short description of series [14]: Therapeutic index, ratio of LD50 for dark toxicity against mouse Colon 26 cells to EC50 for phototoxicity against mouse Colon 26 cells at 10 Jcm'-2 of irradiation with 690 +/- 2 nm light. As to conditions: read-out: Ratio LD50/EC50. It counts as cell-based.
The test system of series [15] is Colon 26. Description: Phototoxicity against mouse Colon 26 cells assessed as cell survival fraction incubated for 1 hr in dark followed by irradiation with 5 J/cm'-2 light from tunable dye laser at 690 +/- 2 nm measured after 48 hrs by SRB assay. The series is classed as functional, cell-based. As to conditions: Colon 26, light or radiation study.
For series [16], the system named is Colon 26. Kind of series: Phototoxicity against mouse Colon 26 cells assessed as cell survival fraction incubated for 1 hr in dark followed by irradiation with 10 J/cm'-2 light from tunable dye laser at 690 +/- 2 nm measured after 48 hrs by SRB assay. It counts as functional, cell-based. As to conditions: Colon 26, light or radiation study.

Molecules are shown by their SMILES. A value given as a limit tells only on which side of the number the result lay.

For the compound `CN(C)c1ccc2c(-c3ccccc3)c3ccc4cc(=[N+](C)C)ccc4c3sc2c1.F[P-](F)(F)(F)(F)F`, the figures for the Drug uptake in series [1] and in series [2] were 1.77 and 2.82, respectively. The “Singlet oxygen quantum yield” value in series [3] is 0.15. Also, in series [4], the concentration giving a half-maximal response (EC50) turned out to be 280 nM. For the same compound, in series [5], the Activity entry is given as “Non-toxic”.
Turning to `CN(C)c1ccc2c(-c3ccccc3)c3ccc4cc(=[N+](C)C)ccc4c3[se]c2c1.F[P-](F)(F)(F)(F)F`, in series [6], the CC50 at 1 h is over 1000 nM. Further, the selectivity ratio in [7] was over 15. In addition, the Drug uptake in series [1] is recorded as 1.38; in [2] it was 2.458. Moreover, the “Singlet oxygen quantum yield” value in series [3] was 0.65. Further, the concentration for a half-maximal effect (EC50) in series [8] stood at 64 nM. The Activity result in series [5] is reported as “Non-toxic”.
Consider `CN(C)c1ccc2c(-c3ccccc3)c3cc4ccc(=[N+](C)C)cc4cc3[se]c2c1.F[P-](F)(F)(F)(F)F`, for which the CC50 at 1 h in series [6] was determined as 2000 nM. The selectivity ratio was 8.3 in series [9] and 11 in series [10]. The Drug uptake in [1] turned out to be 0.7204; in series [2], 0.683. In addition, the “Singlet oxygen quantum yield” value in [3] is under 0.05. The EC50 in series [11] came out at 240 nM; in [12] it was 180 nM. For the same compound, the Activity result in series [5] was “Toxic”.
On to `CN(C)c1ccc2c(-c3ccccc3)c3cc4ccc(=[N+](C)C)cc4cc3sc2c1.F[P-](F)(F)(F)(F)F`, for which the CC50 at 1 h in [6] amounted to 460 nM. Moreover, the values for the selectivity ratio in [13] and in series [14] were 3.3 and 5.1, respectively. Further, the Drug uptake in series [1] is recorded as 1.2; in [2], 2.153. Besides, the “Singlet oxygen quantum yield” value in [3] is given as under 0.05. In addition, the 50% effective concentration (EC50) in series [15] was 140 nM; in series [16] it was 90 nM. Moreover, the Activity result in series [5] was “Toxic”.
